Laboratory results reported in PMC3606385 (PLoS ONE, 2013).
Like-named read-outs stand apart in the source and are kept apart here.

Tests used:
Human 11β-HSD1 [1] = biological target: T1, Human 11β-HSD1 (Homo sapiens, UniProt P28845); experiment: 11β-HSD1 assay in microsomes from CHOP cells transfected with human HSD11B1; assay type: biochemical; conditions: microsomes, screening
T1 construct: expressed in transfected cells; host or cells: CHOP cells (transient, FuGENE)
Method: (§1) An expression plasmid was constructed to express human 11β-HSD1 (HSD11B1) cDNA in pcDNA I expression vector from its original human HSD11B1 vector (pBluescriptSK+).[15]. The Escherichia coli transformants carrying an insert were selected by colony hybridization, and a clone with the insert in the correct orientation relative to the vector T7 promoter was identified by restriction mapping. All transfections were carried out on 80% confluent cultures in 12-well plates. Aliquots of 1 µg HSD11B1 pcDNA I were transfected into mammalian CHOP cells with the FuGENE Transfection Reagent (Roche) according to manufacturer's protocol. Cells were allowed to grow for 24 hours in media containing 10% fetal bovine serum. Then media were removed and cells were harvested for 11β-HSD1 activity assay.
(§2) The rat testis and liver or human liver microsomes were used for 11β-HSD1 assay. 11β-HSD1 activity was performed in the microsome according to a previously described method. […] 2 µg microsomes were added to each tube to initiate the reaction and the reaction mixture was incubated for up to 2 hrs, during which the reaction is within the linear range. The rest procedure was similar to 11β-HSD1 assay in intact cells.
(§3) The IC50 was determined by adding different concentrations of each compound in the 11β-HSD1 or 11β-HSD2 reaction as described. The mode of inhibition was assayed by adding various concentrations of steroid substrates in the presence of an inhibitor as described.

Rat 11β-HSD1 [2] = biological target: T2, Rat 11β-HSD1 (Rattus norvegicus, UniProt P16232); experiment: 11β-HSD1 assay in adult rat testis microsomes; assay type: biochemical; conditions: microsomes, screening
T2 construct: endogenous in cells; host or cells: primary adult Sprague-Dawley rat Leydig cells
Method: (§4) Rats were euthanized by CO2, and livers, testes and kidneys were collected. Rat liver, testis and kidney microsomes were prepared as described previously. In brief, rat liver and kidney were homogenized in […] PBS buffer containing 0.25 M sucrose, and nuclei and large cell debris were removed by centrifugation at 1500× g for 10 min. The post-nuclear supernatants were centrifuged twice at 105,000×g, the resultant microsomal pellets were resuspended. Protein contents were measured by Bio-Rad Dye Reagent Concentrate (Cat.#500-0006). Microsomes were used for measurement of 11β-HSD1 and 11β-HSD2 activities.
as §2, §3

Rat 11β-HSD2 = biological target: T3, Rat 11β-HSD2 (Rattus norvegicus, UniProt P50233); experiment: 11β-HSD2 assay in rat kidney microsomes; assay type: biochemical; conditions: for IC50: rat kidney microsomes
T3 construct: from tissue; host or cells: rat kidney microsomes
T3 sequence (P50233 1-400): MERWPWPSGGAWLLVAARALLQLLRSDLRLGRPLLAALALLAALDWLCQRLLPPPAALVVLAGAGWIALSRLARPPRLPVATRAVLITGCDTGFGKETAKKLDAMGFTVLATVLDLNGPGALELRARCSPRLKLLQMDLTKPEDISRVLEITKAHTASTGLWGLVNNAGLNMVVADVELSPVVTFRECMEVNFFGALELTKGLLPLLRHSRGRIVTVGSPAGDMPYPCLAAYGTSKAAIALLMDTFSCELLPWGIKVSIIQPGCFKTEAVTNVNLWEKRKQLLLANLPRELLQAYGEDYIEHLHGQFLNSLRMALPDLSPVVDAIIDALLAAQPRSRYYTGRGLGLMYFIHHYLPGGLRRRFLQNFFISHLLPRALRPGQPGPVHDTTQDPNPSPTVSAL
Method: as §4
The rat and human kidney microsomes were used for 11β-HSD2 sources. 11β-HSD2 activity was performed in the microsome according to a previously described method. […] 8 (rat) or 20 (human) µg kidney microsomes were added to each tube to initiate the reaction and the reaction mixture was incubated for up to 3 hrs, during which the reaction is within the linear range. The rest procedure was similar to 11β-HSD1 assay. The percentage conversion of CORT to 11DHC or cortisol to cortisone was calculated by dividing the radioactive counts identified as 11keto-steroids by the total counts.
as §3

Human 11β-HSD1 [3] = biological target: T1, Human 11β-HSD1; experiment: 11β-HSD1 assay in intact CHOP cells transfected with human HSD11B1; assay type: cell-based; conditions: for Human 11β-HSD1 Potency to Curcumin (fold): CHOP cells transfected with human HSD11B1, relative to curcumin
Method: as §1
(§5) 11β-HSD1 reductase activity was performed in intact cells using endogenous cofactor NADPH as described previously. […] 25×10^3 cells were added to each tube to initiate the reaction and the reaction mixture was incubated for up to 2 hrs, during which the reaction is within the linear range. At the end of reaction, the reaction was stopped by adding 2 ml ice-cold ether. The steroids were extracted, and the organic layer was dried under nitrogen. The steroids were separated chromatographically on thin layer plates in chloroform and methanol (90∶10, v/v), and the radioactivity was measured using a scanning radiometer (System AR2000, Bioscan Inc., Washington, DC) as described previously. The percentage conversion of 11DHC to CORT or cortisone to cortisol was calculated by dividing the radioactive counts identified as 11-OH-steroids by the total counts.
as §3

Rat 11β-HSD1 [4] = biological target: T2, Rat 11β-HSD1; experiment: 11β-HSD1 assay in intact rat Leydig cells; assay type: cell-based; conditions: for Rat 11β-HSD1 Potency to Curcumin (fold) / IC50: intact rat Leydig cells; for Rat 11β-HSD1 Potency to Curcumin (fold): relative to curcumin; for IC50: read-out: Rat 11β-HSD1 IC50 (nM) in Leydig cells
Method: Rat Leydig cells contain the highest 11β-HSD1 activity in all cell types of rat tissues, and were used for rat 11β-HSD1 enzyme sources. Purified rat Leydig cells were obtained from 90-day-old Sprague-Dawley rats by collagenase digestion of the testes followed by Percoll density centrifugation of the cell suspension, according to the previously described method. […] The purity of cell fractions was evaluated by histochemical staining for 3β-hydroxysteroid dehydrogenase activity with […] etiocholanolone as the steroid substrate.
as §5, §3

Human 11β-HSD2 = biological target: T4, Human 11β-HSD2 (Homo sapiens, UniProt P80365); experiment: 11β-HSD2 assay in human kidney microsomes; assay type: biochemical; conditions: for IC50: human kidney microsomes, read-out: IC50 (nM) Human 11β-HSD2
T4 construct: tissue Gentest (Woburn, MA); host or cells: human kidney microsomes
T4 sequence (P80365 1-405): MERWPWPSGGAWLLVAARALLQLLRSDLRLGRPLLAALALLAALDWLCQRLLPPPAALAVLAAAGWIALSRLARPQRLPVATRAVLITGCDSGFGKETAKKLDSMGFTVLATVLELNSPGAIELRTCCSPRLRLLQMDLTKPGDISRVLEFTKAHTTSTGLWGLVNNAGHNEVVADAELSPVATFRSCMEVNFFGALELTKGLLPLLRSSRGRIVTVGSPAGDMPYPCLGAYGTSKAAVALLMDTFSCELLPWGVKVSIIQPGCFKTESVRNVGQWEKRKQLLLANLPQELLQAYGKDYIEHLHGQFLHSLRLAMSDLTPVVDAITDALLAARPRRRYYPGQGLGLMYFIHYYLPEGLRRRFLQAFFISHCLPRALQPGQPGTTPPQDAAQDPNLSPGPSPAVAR
Method: The rat and human kidney microsomes were used for 11β-HSD2 sources. 11β-HSD2 activity was performed in the microsome according to a previously described method. In brief, the assay tubes contained 25 nM substrate CORT (for rat) or cortisol (for human), spiked with 30,000 cpm their respective ^3H-11β-hydroxyl steroid, 0.2 mM NAD+ and 0.1 mM DTT in the PBS buffer. 8 (rat) or 20 (human) µg kidney microsomes were added to each tube to initiate the reaction and the reaction mixture was incubated for up to 3 hrs, during which the reaction is within the linear range. The rest procedure was similar to 11β-HSD1 assay. The percentage conversion of CORT to 11DHC or cortisol to cortisone was calculated by dividing the radioactive counts identified as 11keto-steroids by the total counts.
as §3

[5] = CHOP cells transfected with human HSD11B1, read-out: Human 11β-HSD1 IC50 (nM) in CHOP cells

T2 sequence (P16232 whole entry): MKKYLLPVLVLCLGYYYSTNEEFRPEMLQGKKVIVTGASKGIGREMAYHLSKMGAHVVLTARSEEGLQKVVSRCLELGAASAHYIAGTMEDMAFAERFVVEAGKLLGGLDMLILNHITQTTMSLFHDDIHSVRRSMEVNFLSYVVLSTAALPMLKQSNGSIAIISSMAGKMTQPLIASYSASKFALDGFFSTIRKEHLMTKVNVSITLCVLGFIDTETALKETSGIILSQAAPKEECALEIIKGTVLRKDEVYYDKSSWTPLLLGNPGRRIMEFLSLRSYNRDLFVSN
T1 sequence (P28845 whole entry): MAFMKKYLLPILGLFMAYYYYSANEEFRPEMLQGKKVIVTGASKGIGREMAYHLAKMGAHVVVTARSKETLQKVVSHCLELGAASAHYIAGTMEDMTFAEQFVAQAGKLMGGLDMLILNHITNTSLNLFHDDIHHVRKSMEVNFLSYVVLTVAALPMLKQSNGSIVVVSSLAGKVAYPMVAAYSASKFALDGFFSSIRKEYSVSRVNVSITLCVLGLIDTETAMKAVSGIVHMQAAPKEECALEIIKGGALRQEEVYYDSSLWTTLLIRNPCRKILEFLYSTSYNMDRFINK

Row | Structure (SMILES) | Inhibitory effect against human 11β-HSD1 in nutraceutical screen (Human 11β-HSD1 [1]) | Inhibitory effect against rat 11β-HSD1 in nutraceutical screen (Rat 11β-HSD1 [2]) | IC50 (Rat 11β-HSD2) | Human 11β-HSD1 Potency to Curcumin (fold) (Human 11β-HSD1 [3]) | IC50 (Human 11β-HSD1 [3]; [5]) | Rat 11β-HSD1 Potency to Curcumin (fold) (Rat 11β-HSD1 [4]) | IC50 (Rat 11β-HSD1 [4]) | IC50 (Human 11β-HSD2) | Inhibition of rat 11β-HSD2 at 100 µM (Rat 11β-HSD2) | Inhibition of human 11β-HSD2 at 100 µM (Human 11β-HSD2) | Inhibition of human 11β-HSD1 at 100 μM (Human 11β-HSD1 [3]; 100 μM, intact cells) | Inhibition of rat 11β-HSD1 at 100 μM (Rat 11β-HSD1 [4]; 100 μM, intact cells) | IC50 (Human 11β-HSD1 [3]; intact CHOP cells transfected with human HSD11B1, read-out: IC50 human 11β-HSD1 in intact cells)
1 | COc1ccc2cc3[n+](cc2c1OC)CCc1cc2c(cc1-3)OCO2 [berberine] | only curcumin (compound 1) showed inhibitory effects | only curcumin (compound 1) showed inhibitory effects | – | – | – | – | – | – | – | – | – | – | –
2 | O=C(/C=C/c1ccc(Br)o1)/C=C/c1ccc(Br)o1 [compound 2] | – | – | > 100000 nM | 2.31 fold | 995 nM | 1.38 fold | 4210 nM | > 100000 nM | – | – | – | – | –
3 | Cc1ccsc1/C=C/C(=O)/C=C/c1sccc1C [compound 4, (1E,4E)-1,5-bis(3-methylthiophen-2-yl) penta-1,4-dien-3-one] | – | – | > 100000 nM | 12.54 fold | 183 nM | 50.75 fold | 114 nM | 19600 nM | – | – | – | – | –
4 | O=C1/C(=C/c2ccc(Br)o2)CC/C1=C\c1ccc(Br)o1 [compound 7] | – | – | > 100000 nM | 1.73 fold | 1330 nM | 1.85 fold | 3130 nM | > 100000 nM | – | – | – | – | –
5 | Cc1ccc(/C=C2\CC/C(=C\c3ccc(C)s3)C2=O)s1 [compound 8] | – | – | > 100000 nM | 20.68 fold | 111 nM | 2.17 fold | 2670 nM | > 100000 nM | did not inhibit | did not inhibit | – | – | –
6 | Cc1ccsc1/C=C1\CC/C(=C\c2sccc2C)C1=O [compound 9, (1E,4E)-1,5-bis(3-methylthiophen-2-yl) cyclopentanone] | – | – | > 100000 nM | – | > 100000 nM | – | > 100000 nM | > 100000 nM | – | – | did not inhibit | did not inhibit | –
7 | Cn1cccc1/C=C1\CC/C(=C\c2cccn2C)C1=O [compound 10] | – | – | > 100000 nM | – | > 100000 nM | – | > 100000 nM | > 100000 nM | – | – | – | – | –
8 | O=C1/C(=C/c2cccs2)CC/C1=C\c1cccs1 [compound 11] | – | – | > 100000 nM | 10.20 fold | 225 nM | 5.51 fold | 1050 nM | > 100000 nM | did not inhibit | did not inhibit | – | – | –
9 | O=C1/C(=C/c2ccc(Br)o2)CCC/C1=C\c1ccc(Br)o1 [compound 12] | – | – | > 100000 nM | 0.75 fold | 3050 nM | 0.54 fold | 10800 nM | > 100000 nM | – | – | – | – | –
10 | Cc1ccc(/C=C2\CCC/C(=C\c3ccc(C)s3)C2=O)s1 [compound 13] | – | – | > 100000 nM | 0.50 fold | 4590 nM | 0.48 fold | 11900 nM | > 100000 nM | – | – | – | – | –
11 | Cn1cccc1/C=C1\CCC/C(=C\c2cccn2C)C1=O [compound 15] | – | – | > 100000 nM | 1.09 fold | 2100 nM | 0.49 fold | 11800 nM | > 100000 nM | – | – | – | – | –
12 | O=C1/C(=C/c2cccs2)CCC/C1=C\c1cccs1 [compound 16, (1E,4E)-1,5-bis(thiophen-2-yl) cyclohexanone] | – | – | > 100000 nM | 0.64 fold | 3570 nM | 2.27 fold | 2550 nM | > 100000 nM | – | – | – | – | 3570 nM
13 | COc1ccc(-c2oc3c(CC=C(C)C)c(O[C@@H]4O[C@H](CO)[C@@H](O)[C@H](O)[C@H]4O)cc(O)c3c(=O)c2O[C@@H]2O[C@@H](C)[C@H](O)[C@@H](O)[C@H]2O)cc1 [icariin] | only curcumin (compound 1) showed inhibitory effects | only curcumin (compound 1) showed inhibitory effects | – | – | – | – | – | – | – | – | – | – | –
